“Also recorded” adds a separate entry of the source. Read-outs that look alike come from different tables or passages of the source. Where a SMILES comes first, the peptide text is derived from it. Bridges are numbered along the chain shown (N, C = ends). Roman numbers before positions name the chains, in order.
Experiments:
[1] = Stabilization of 25 mM and 50 mM cysteine solutions against precipitation by Cys-dipeptides under oxidizing conditions (H2O2), turbidity at 600 nm; type: physicochemical; details: H2O2 added, after 4.5 hours
Experimental: (§1) Turbidity caused by precipitation was measured photometrically at 600 nm in a microtiter plate-based assay. Liquid volume per well was 200 μl and measurements were conducted over 24 hours at 37° C. in a microplate reader (Tecan). The plates were not covered with a lid.
(§2) An experiment as described in example 1 was conducted in a microtiter plate. After two hours of incubation at 37° C., 14 μl of a 5 weight % H2O2 solution were added to each well to accelerate oxidation and evaluate stabilization under fully oxidized conditions. […] Turbidity measurements in the microplate reader were continued subsequently. Results are shown in Fehler! Verweisquelle konnte nicht gefunden werden.
To evaluate if the above described stabilization is also possible by addition of other Cys-dipeptides, experiments as described in example 4 were conducted with the exception that reduced cysteine concentrations of 50 mM and 25 mM were used and that the concentrations of added Cys-dipeptides were 0 (=control), 5, 10, 25 and 50 mM. The effect of (Asp-Cys)2, (Cys-Asp)2, (Lys-Cys)2, (Cys-Lys)2, (Ala-Cys)2 and (Pro-Cys)2 was evaluated. All Cys-peptides were able to prevent precipitation from the cysteine solutions after addition of H2O2 Differences in stabilization efficiency were observed between the various Cys-Peptides at cysteine concentrations of 50 mM. The Cys-dipeptides containing lysine residues were the most efficient stabilizers and a molar Cys-peptide to cysteine ratio between 1:2 and 1:5 provided sufficient stability.

[2] = Solubility of (Ala-Cys)2 and its solubilization by addition of cysteine, turbidity at 600 nm; type: physicochemical
Experimental: Turbid suspensions of 50 mM (Ala-Cys)2 in phosphate buffer at pH=7 were prepared and increasing amounts of cysteine were added. The mixtures were incubated at 37° C. in a microtiter plate (liquid volume per well was 200 μl) and turbidity at 600 nm was measured after 30 minutes. At concentrations of 20 mM of cysteine and higher, (Ala-Cys)2 was fully solubilized and no further reduction of turbidity was measured. Solutions were visually transparent (see FIG. 2).

[3] = Stabilization of 50 mM cysteine solution against precipitation by reduced and oxidized Cys-dipeptides under oxidizing conditions (H2O2), turbidity at 600 nm; type: physicochemical; details: H2O2 added; for Turbidity at 600 nm: after 4.5 hours
Experimental: as §1, §2
To evaluate if the above described stabilization is also possible by addition of reduced Cys-dipeptides (=free thiol), the same experimental setup as described in example 4 was chosen. In this case, various concentrations of the reduced dipeptide Cys-Gly and of the oxidized dipeptide (Cys-Gly)2 were added to a 50 mM cysteine solution. Both Cys-peptides were able to prevent precipitation from the cysteine solutions after addition of H2O2.

[4] = pH range between 3 and 9; cited from earlier work
[5] = Precipitation from a 100 mM cysteine solution with added (Lys-Cys)2, turbidity at 600 nm in microtiter plate; type: physicochemical; details: 24 hours
Experimental: Solutions of substances and dilutions thereof were prepared in 100 mM phosphate buffer, pH=7 in all experiments in all examples. Precipitation could be avoided in a 100 mM solution of cysteine in a 100 mM phosphate buffer at pH=7 by the addition of suitable concentrations of (Lys-Cys)2.
as §1
When 100 mM solutions of cysteine were prepared with 0, 100, 200 or 400 mM (Lys-Cys)2×2 HCl at pH=7, a surprising result was obtained. Precipitation could be seen and measured in the absence of added peptide. […] The precipitates could be observed visually and measured via turbidimetry (see FIG. 1).

[6] = Stabilization of a 100 mM cysteine solution against precipitation by (Lys-Cys)2 under oxidizing conditions (H2O2), turbidity; type: physicochemical
Experimental: as §1, §2
The mixtures were incubated in a microplate for 2 hours at 37° C. and turbidity was measured photometrically. H2O2 was subsequently added to accelerate oxidation and evaluate stability against precipitation under fully oxidized conditions. Turbidity measurement was continued directly after H2O2 addition. With cysteine alone, the solution turned directly and visibly turbid, when H2O2 was added. With increasing amounts of added (Lys-Cys)2, the amount of precipitate measured via turbidity was reduced.

[7] = 25 mM cysteine solution, Cys-peptide 5 mM
[8] = 25 mM cysteine solution, Cys-peptide 10 mM
[9] = 25 mM cysteine solution, Cys-peptide 25 mM
[10] = 25 mM cysteine solution, Cys-peptide 50 mM
[11] = 50 mM cysteine solution, Cys-peptide 5 mM
[12] = 50 mM cysteine solution, Cys-peptide 10 mM
[13] = 50 mM cysteine solution, Cys-peptide 25 mM
[14] = 50 mM cysteine solution, Cys-peptide 50 mM

## (Cys-Asp)2
[1]; [7]
  Turbidity at 600 nm: 0.081 AU
[1]; [8]
  Turbidity at 600 nm: 0.037 AU
[1]; [9]
  Turbidity at 600 nm: 0.038 AU
[1]; [10]
  Turbidity at 600 nm: 0.040 AU
[1]; [11]
  Turbidity at 600 nm: 1.702 AU
[1]; [12]
  Turbidity at 600 nm: 1.523 AU
[1]; [13]
  Turbidity at 600 nm: 0.279 AU
[1]; [14]
  Turbidity at 600 nm: 0.039 AU

## C[C@H](N)C(=O)N[C@@H](CSSC[C@H](NC(=O)[C@H](C)N)C(=O)O)C(=O)O [(Ala-Cys)2] (I: H-Ala-Cys-OH / II: H-Ala-Cys-OH; disulfide I:2-II:2; N-terminus and C-terminus assumed)
[2]; 50 mM (Ala-Cys)2 suspension, phosphate buffer pH=7, 37° C., turbidity at 600 nm after 30 minutes, read-out: concentration of cysteine at which 50 mM (Ala-Cys)2 was fully solubilized
  solubility: ≥ 20 mM
[2]; pH=7 and 37° C., read-out: maximum solubility
  solubility: < 50 mM

## (Cys-Lys)2
[1]; [7]
  Turbidity at 600 nm: 0.044 AU
[1]; [8]
  Turbidity at 600 nm: 0.050 AU
[1]; [9]
  Turbidity at 600 nm: 0.068 AU
[1]; [10]
  Turbidity at 600 nm: 0.084 AU
[1]; [11]
  Turbidity at 600 nm: 0.390 AU
[1]; [12]
  Turbidity at 600 nm: 0.092 AU
[1]; [13]
  Turbidity at 600 nm: 0.067 AU
[1]; [14]
  Turbidity at 600 nm: 0.077 AU

## (Pro-Cys)2
[1]; [7]
  Turbidity at 600 nm: 0.078 AU
[1]; [8]
  Turbidity at 600 nm: 0.039 AU
[1]; [9]
  Turbidity at 600 nm: 0.040 AU
[1]; [10]
  Turbidity at 600 nm: 0.042 AU
[1]; [11]
  Turbidity at 600 nm: 1.539 AU
[1]; [12]
  Turbidity at 600 nm: 1.379 AU
[1]; [13]
  Turbidity at 600 nm: 0.762 AU
[1]; [14]
  Turbidity at 600 nm: 0.118 AU

## (Cys-Gly)2
[3]; Cys-peptide 5 mM
  Turbidity at 600 nm: 1.07 AU
[3]; Cys-peptide 10 mM
  Turbidity at 600 nm: 0.07 AU
[3]; Cys-peptide 25 mM
  Turbidity at 600 nm: 0.04 AU
[3]; Cys-peptide 50 mM
  Turbidity at 600 nm: 0.04 AU
[3]
  peptide concentration at which precipitation was completely suppressed: 25 mM

## N[C@@H](CSSC[C@H](N)C(=O)O)C(=O)O [cystine]
[4]
  solubility: < 1 mM

## (Asp-Cys)2
[1]; [7]
  Turbidity at 600 nm: 0.038 AU
[1]; [8]
  Turbidity at 600 nm: 0.039 AU
[1]; [9]
  Turbidity at 600 nm: 0.038 AU
[1]; [10]
  Turbidity at 600 nm: 0.040 AU
[1]; [11]
  Turbidity at 600 nm: 1.453 AU
[1]; [12]
  Turbidity at 600 nm: 1.301 AU
[1]; [13]
  Turbidity at 600 nm: 0.039 AU
[1]; [14]
  Turbidity at 600 nm: 0.042 AU

## Cys-Gly
[3]; Cys-peptide 5 mM
  Turbidity at 600 nm: 0.58 AU
[3]; Cys-peptide 10 mM
  Turbidity at 600 nm: 0.37 AU
[3]; Cys-peptide 25 mM
  Turbidity at 600 nm: 0.26 AU
[3]; Cys-peptide 50 mM
  Turbidity at 600 nm: 0.04 AU
[3]
  peptide concentration at which precipitation was completely suppressed: 50 mM

## (Lys-Cys)2
[1]; [7]
  Turbidity at 600 nm: 0.039 AU
[1]; [8]
  Turbidity at 600 nm: 0.041 AU
[1]; [9]
  Turbidity at 600 nm: 0.042 AU
[1]; [10]
  Turbidity at 600 nm: 0.047 AU
[1]; [11]
  Turbidity at 600 nm: 0.946 AU
[1]; [12]
  Turbidity at 600 nm: 0.556 AU
[1]; [13]
  Turbidity at 600 nm: 0.045 AU
[1]; [14]
  Turbidity at 600 nm: 0.047 AU
[5]; 100 mM cysteine with 100 mM (Lys-Cys)2, pH=7, 37° C.
  precipitation (visual, turbidimetry): accelerated precipitation
[5]; 100 mM cysteine with 200 mM (Lys-Cys)2, pH=7, 37° C.
  precipitation (visual, turbidimetry): effectively prevented precipitation
[5]; 100 mM cysteine with 400 mM (Lys-Cys)2, pH=7, 37° C.
  precipitation (visual, turbidimetry): effectively prevented precipitation
[6]; 100 mM cysteine with 400 mM (Lys-Cys)2
  precipitate after H2O2 addition: no precipitate was observed; also recorded: remained completely clear
[6]; 100 mM cysteine with (Lys-Cys)2, 2 hours at 37° C., then H2O2
  turbidity directly after addition of H2O2: no immediate increase in turbidity was observed
[6]; 100 mM cysteine, increasing concentrations of (Lys-Cys)2
  turbidity increase after H2O2 addition: strongly reduced
